Experimental data taken from patent US20170165253A1, “TREATMENT OF SEXUAL DYSFUNCTION AND FOR IMPROVED SEXUAL QUALITY OF LIFE” (ReJoy, priority 2015, published 2017).
Where “and” joins values, the source holds several entries; their conditions need not be identical. Identical values can stand only once. Counter-ions that a name gives are not always drawn.

Columns and labels:
[1] = IVRT Franz cell skin penetration, excised pig skin; type: in vitro ADME; settings: for Penetration (%), Sample 1-3 / Penetration (%), Average: pig skin; for Penetration (%), Sample 1-3: single replicates, Hydrochloride
Excerpt: (§1) Transdermal penetration of a particular formulation can be assessed with in vitro release testing (IVRT) using a Franz cell. See Bartosova and Bajagar, “Transdermal Drug Delivery In Vitro Using Diffusion Cells,” Current Medicinal Chemistry, 2012, 19, 4671-4677.
(§2) In order to determine the dermal absorption and bioavailability of topically applied 10% Phenylephrine Hydrochloride solution, we used an IVRT experimental setup with both skin excised from pig ears and a synthetic skin model (Maine Manufacturing, LLC, Me., USA).
In the example, the following data was obtained from a Franz cell diffusion experiment using excised pigskin barrier. A 50 microliter aliquot of a phenylephrine solution was allowed to penetrate through 9 mm diameter sample of pigskin into a 5 mL reservoir of phosphate buffered saline. Phenylephrine concentration was determined in the reservoir by measuring the optical absorbance at 214 nm at time points subsequent to the application of the formulation. In the following example the test solution was 10% (w/w) phenylephrine, 10% (w/w) Dimethyl Isosorbide, and 80% (w/w) ethanol. From the data below, it can be concluded that the formulation can be deemed “successful” because 82% of the applied drug penetrated the pigskin membrane in 3 hours. The experiment was run in triplicate. The average of all three data is shown. It is envisioned that additional studies may be undertaken with other models of in vitro release testing or with variations of the same model to compare with the data reported below.

[2] = IVRT skin penetration, synthetic skin model; type: in vitro ADME; settings: 10% solution
Excerpt: as §1, §2

[3] = Blood pressure and heart rate after topical application on the nipple-areola complex (Example 2); type: in vivo, human
Procedure: A study of the blood pressure and heart rate of five patients receiving topical application on the nipple-areola complex was made. The composition applied was 0.1 mL of a 10% phenylephrine solution for a total dosage of 10 mg phenylephrine HCl. Blood pressure and heart rate were measured at baseline (T=0), after 15 minutes and 30 minutes.

nipple areola complex [4] = assay: Iontophoresis patch erection of the nipple areola complex (Example 10); type: in vivo, human; settings: 1.3 mL 1% solution, iontophoresis patch 1 hour
Procedure: In the following experiment, a commercially available iontophoresis patch was used to erect the nipple of a subject.
1. The nipple and areola of each breast were prepared by cleaning with a sterile alcohol pad.
2. Two Inotopatch 80 (Travanti Medical) patches were removed from packaging.
3. The positive electrode of the first patch was filled with 1.3 mL of a 1% phenylephrine hydrochloride.
4. The negative electrode of the first patch was filled with 1.3 mL of a saline solution.
5. The positive electrode (approximately 1.5 cm diameter) containing the drug was placed over the nipple areola complex of the right breast; the negative electrode was placed on the adjacent breast tissue outside the nipple areola complex of the right breast.
6. Steps 2-5 were repeated, however, both electrodes of the Inotopatch 80 were filled with 1.3 mL of saline. The patch was applied to left breast following the procedure of step 5.
7. The patches were left in place (adhesive) for 1 hour (dosage=[…], 80 mA/min).
8. After 1 hour the patches were removed.

nipple areola complex [5] = assay: Restoration of nipple sensitivity post breast surgery, case study (Example 11); type: in vivo, human; settings: Likert scale (1-10), 45 minutes after 10% solution, single patients; Hydrochloride
Procedure: A case study was conducted to assess the efficacy of a topical phenylephrine solution in increasing nipple sensitivity in patients that reported a loss in nipple sensitivity post breast surgery. Five subjects ages 36-65 participated in the study. Subjects were asked to rate their nipple sensitivity on a Likert scale (1-10) before surgery and currently (i.e., after surgery). Next, patients were asked to apply a 10% phenylephrine solution to each nipple areola complex. 45 minutes after application of the drug, patients were asked again to rate their nipple sensitivity on a Likert scale (1-10).

[6] = Heart rate, blood pressure and adverse events in Example 12; type: in vivo, human; settings: for Delta HR t = 15: 15 minutes; for Delta HR t = 15 / Delta HR t = 30 / Delta HR t = 60: single patients, Hydrochloride; for Delta HR t = 30: 30 minutes; for Delta HR t = 60: 60 minutes
Procedure: 20 healthy, pre-menopausal females were recruited to the study. Subjects were instructed to apply either 4 or 6 drops of an investigational drug to each nipple areola complex. Baseline blood-pressure, heart rate, nipple erection, nipple sensitivity, genital lubrication and arousal were measured and recorded. […]

[7] = IVRT Franz cell skin penetration, excised pig skin; type: in vitro ADME
nipple areole complex = assay: Pilot study in female sexual dysfunction, SSE by Sexual Activity Record (Example 4)
[8] = 0.1 mL 10% solution on NAC, 15 minutes, single subjects, listed as PHCI, Hydrochloride
[9] = 0.1 mL 10% solution on NAC, 30 minutes, single subjects, listed as PHCI, Hydrochloride

For `CNC[C@H](O)c1cccc(O)c1` [Phenylephrine HCl, Phenylephrine Hydrochloride], the “average absorption per nipple-areola complex” value ([1]; 0.1 mL of 10% solution not removed for 24 hours) was 8.3 mg, the “applied drug penetrated the pigskin membrane” value ([1]; 10% (w/w) in 10% Dimethyl Isosorbide, 80% ethanol, 3 hours) was 82% and the “Penetration (%), Sample 1-3” value ([1]; 10% solution, 50 microliter, 1 h) was 32.3% and 2.1% and 0.7%. For the same compound, the “Penetration (%), Average” value ([1]; 10% solution, 1 h) was 11.7%, the “Penetration (%), Average” value ([1]; 10% solution, 2 h) was 61.1% and the “Penetration (%), Sample 1-3” value ([1]; 10% solution, 2 h) was 80.6% and 89.0% and 13.6%. For the same compound, the “Penetration (%), Average” value ([1]; 10% solution, 3 h) was 82.8%, the “Penetration (%), Sample 1-3” value ([1]; 10% solution, 3 h) was 78.9% and 87.5% and 81.9% and the “Penetration (%), Average” value ([1]; 10% solution, 4 h) was 81.0%. The “Penetration (%), Sample 1-3” value ([1]; 10% solution, 4 h) was 78.6% and 83.4% and 81.1%, the “Penetration (%), Average” value ([1]; 10% solution, 5 h) was 81.9% and the “Penetration (%), Sample 1-3” value ([1]; 10% solution, 5 h) was 78.5% and 86.0% and 81.3%. The “Penetration (%), Average” value ([1]; 10% solution, 24 h) was 81.6%, the “Penetration (%), Sample 1-3” value ([1]; 10% solution, 24 h) was 81.3% and 83.1% and 80.3% and the “maximal skin absorption in 24 hours” value ([1]; 10% solution, skin excised from pig ears) was at most 83%. For the same compound, the “maximal skin absorption in 24 hours” value [2] was at most 83%, the “BP (T = 15)” value [3, 8] was 112/76 and 122/77 and 117/72 and 120/72 and 99/67 and the “HR (T = 15)” value [3, 8] was 69 and 77 and 75 and 53 and 68. The “BP (T = 30)” value [3, 9] was 117/75 and 122/78 and 128/77 and 116/68 and 97/63, the “HR (T = 30)” value [3, 9] was 74 and 80 and 68 and 58 and 69 and the “change in blood pressure or heart rate” value ([3]; 0.1 mL 10% solution, five patients, 15 and 30 minutes) was “No significant change in blood pressure or heart rate”. For the same compound, the nipple sensitivity (nipple areola complex [4]; one subject) was “increased sensitivity in the right nipple compared to the left nipple”, the nipple erection (nipple areola complex [4]; right nipple vs saline left) was “visibly erect” and the “Nipple Sensitivity, Post-Surgery + Drug” value (nipple areola complex [5]) was 6 (2×) and 1 and 8 (2×). The “Delta HR t = 15” value ([6]; 10% Arm C, four drops (0.114 mL) per NAC) was −3 (2×) and −10 and 3 (4×) and −7 and 0 (3×) and −1 (2×) and −2 (3×) and 4 and −9 and 6 and −5, the “Delta HR t = 30” value ([6]; 10% Arm C, four drops) was −2 and −12 and 13 and −7 (3×) and −3 (2×) and −1 (2×) and 5 and 7 (2×) and 3 (2×) and −4 (3×) and 0 (2×) and the “Delta HR t = 60” value ([6]; 10% Arm C, four drops) was −2 (2×) and −7 and −1 (3×) and −6 (2×) and −4 (4×) and 5 (2×) and −8 and 7 and 2 (2×) and −9 and −10. For the same compound, the “Delta HR t = 15” value ([6]; 15% (Arm D), four drops) was −9 (4×) and 1 (2×) and 0 and −4 (2×) and −6 and 4 and −15 and −8 and −5 and −3 (3×) and 6 and −1 and −2, the “Delta HR t = 30” value ([6]; 15% (Arm D), four drops) was −14 and 4 (2×) and 0 and −1 and −2 (3×) and 6 and −10 (2×) and −4 and −5 and 2 and −12 and 8 and 5 and 1 and 3 and −8 and the “Delta HR t = 60” value ([6]; 15% (Arm D), four drops) was −16 and 4 and −6 (3×) and −2 (4×) and −4 and −7 and −9 and 1 and −3 (2×) and 0 (2×) and −10 and 2 and −11. For the same compound, the “Delta HR t = 15” value ([6]; 20% (Arm B), four drops) was −15 and 3 and −2 (2×) and −1 (2×) and −6 (2×) and 2 and −4 (2×) and −10 and 6 and 1 and −7 and −5 and 10 and −3 and 7 and 0, the “Delta HR t = 30” value ([6]; 20% (Arm B), four drops) was −20 and 4 and −6 and −14 and −3 (2×) and 7 (2×) and 1 (3×) and −1 (2×) and −7 and 10 (2×) and −9 (2×) and 3 and 6 and the “Delta HR t = 60” value ([6]; 20% (Arm B), four drops) was −21 (2×) and 3 and 1 and −13 and 6 and −1 and 0 (2×) and −8 and −6 (2×) and 4 (2×) and −3 (2×) and −4 and 11 and 9 and −2. For the same compound, the adverse event ([6]; 20% arm) was “one adverse event (nipple pain)”, the “changes in blood pressure or heart rate” value ([6]; all arms, 10-20%) was “no changes in blood pressure or heart rate” and the “total absorption over 24 hours” value ([7]; 0.1 mL of 10% solution per NAC, both NAC) was 16.6 mg. The “less systemic exposure compared to the oral OTC drug” value ([7]; topical dosage vs one 10 mg oral tablet every 4 hours) was “approximately 45%”, the “Number of SSE (1 week)” value (nipple areole complex; 0.1 mL 10% solution per NAC about 1 hour before sexual activity, single subjects, Hydrochloride) was 2 (2×) and 1 (2×) and 6 and 3 (3×) and 4 and the “time nipples remained sensitive” value (nipple areole complex; 10% solution) was 3 to 4 h. For the same compound, the “time to increased nipple sensitivity after application” value (nipple areole complex; 10% solution, all subjects) was at most 30 min, the “subjects with significant change in number of SSEs from baseline” value (nipple areole complex; nine subjects, one week) was “Seven subjects reported significant change in the number of SSEs from baseline” and the “adverse events” value (nipple areole complex; one subject of nine) was “slightly painful nipple erection”. The persistence of sensitivity (nipple areole complex; one subject with initial slightly painful nipple erection) was “approximately 8 hours” and the “desire (modified FSFI desire domain)” value (nipple areole complex; subjects reporting increase in number of SSEs) was “increased desire”.
